Tested on: kidney tissue of g-ddY mice
Assay: RNA-seq differential gene expression in kidney tissue of g-ddY mice
Assay type: in vivo, mouse
Method: RNA isolation and sequencing libraries were generated using standard protocols. Sequencing was performed using an Illumina NextSeq500 using manufacturer's instructions with a read length of 75 bp and a read depth of 30 million. Raw data was assembled to FASTQ files. Following QC analysis, high quality sequencing reads (e.g., reads with a Phred quality score >36) were aligned to the mouse reference genome (GRCm38-mm10) using the default parameters of the align algorithm and transcript count tables of each library was generated using the default parameters of the featureCounts algorithm of the RSubread package (Liao Y, Smyth GK, Shi W, 2019). High quality sequencing reads mapped to 27,129 genes. Following additional QC of low count filtering (i.e. transcripts <10 counts across all samples), 16,207 genes were identified and used for further analysis. The remaining sequencing read counts of the included 16,207 genes were normalized to library size, log-transformed, and were quantified as counts per million (CPM). Select RNA-seq counts were validated using qPCR. Sequencing read counts (CPM) were used for identification of differential gene expression between specified populations using the quasi-likelihood methodology of the edgeR package. […] MA plots were generated using edgeR. Heatmaps and other plots were generated using the gplots and ggplot2 package.

[1] = 10 mg/kg/day vs control, mesangial cell signature
[2] = 20 mg/kg/day vs control, IL6 signaling
[3] = 20 mg/kg/day vs control, NF-kB signaling
[4] = 20 mg/kg/day vs control, PDGF signaling
[5] = 20 mg/kg/day vs control, cell proliferation signaling

SMILES: CCCCN(CCCC)C(=O)CN1C[C@H](c2ccc3c(c2)OCO3)[C@@H](C(=O)O)[C@@H]1c1ccc(OC)cc1 [atrasentan, (2R,3R,4S)-4-(1,3-benzodioxol-5-yl)-1-[2-(dibutylamino)-2-oxoethyl]-2-(4-methoxyphenyl)pyrrolidine-3-carboxylic acid]
- Ankrd12 logFC [1]: −0.2824
- C7 logFC [1]: −0.7767
- Cald1 logFC [1]: −0.3719
- Cblb logFC [1]: −0.082
- Ebf1 logFC [1]: −0.3301
- Epb41l2 logFC [1]: −0.4375
- Ets1 logFC [1]: −0.2198
- Fchsd2 logFC [1]: −0.2564
- Frmd4a logFC [1]: −0.2838
- Gata3 logFC [1]: −0.4822
- Gpx3 logFC [1]: 0.6802
- Igfbp7 logFC [1]: 0.2052
- Lama2 logFC [1]: −0.2955
- Maml2 logFC [1]: −0.2318
- Meis1 logFC [1]: −0.2507
- Myh9 logFC [1]: −0.2094
- Myo1e logFC [1]: −0.2349
- Nbea logFC [1]: −0.2819
- Nfkbia logFC [1]: −0.5525
- Piezo2 logFC [1]: −0.4078
- Postn logFC [1]: −1.385
- Pparg logFC [1]: −0.6129
- Ppp1r12a logFC [1]: −0.1995
- Prkg1 logFC [1]: −0.2187
- Psd3 logFC [1]: −0.3544
- Ptprm logFC [1]: −0.2614
- Rapgef5 logFC [1]: −0.2732
- Raph1 logFC [1]: −0.2965
- Rbms3 logFC [1]: −0.5749
- Robo1 logFC [1]: −0.4803
- Stard13 logFC [1]: −0.7224
- Tacc1 logFC [1]: −0.2449
- Tcf4 logFC [1]: −0.2176
- Tjp1 logFC [1]: −0.2489
- Tns3 logFC [1]: −0.2638
- Unc5c logFC [1]: 0.5618
- Utrn logFC [1]: −0.49
- Cntfr logFC [2]: −0.8574
- Csf1 logFC [2]: −1.089
- Il1r1 logFC [2]: −0.8263
- Il2ra logFC [2]: −0.959
- Map3k8 logFC [2]: −0.8222
- Ackr3 logFC [3]: 0.4917
- Atf3 logFC [3]: −2.107
- Btg1 logFC [3]: −0.5187
- Btg2 logFC [3]: −0.6974
- Ccn1 logFC [3]: −1.087
- Ccnd1 logFC [3]: 0.644
- Cdkn1a logFC [3]: 0.2546
- Csf1 logFC [3]: −1.089
- Cxcl2 logFC [3]: −2.5772
- Dnajb4 logFC [3]: −0.3548
- Edn1 logFC [3]: −1.328
- Efna1 logFC [3]: 0.286
- Ehd1 logFC [3]: 0.2715
- F3 logFC [3]: −0.5235
- Fosl2 logFC [3]: −1.122
- Gem logFC [3]: −1.237
- Id2 logFC [3]: 0.2228
- Ifit2 logFC [3]: −0.6323
- Jag1 logFC [3]: −0.3939
- Klf2 logFC [3]: −0.4816
- Klf4 logFC [3]: −0.904
- Map3k8 logFC [3]: −0.8222
- Nfat5 logFC [3]: −0.323
- Nfkb1 logFC [3]: −0.616
- Nfkbia logFC [3]: −0.7041
- Nr4a1 logFC [3]: −1.621
- Nr4a2 logFC [3]: −1.111
- Nr4a3 logFC [3]: −1.113
- Per1 logFC [3]: −0.1216
- Pfkfb3 logFC [3]: −1.125
- Pnrcl logFC [3]: 0.04156
- Rel logFC [3]: −1.0782
- Rhob logFC [3]: −0.5419
- Serpine1 logFC [3]: −1.501
- Snn logFC [3]: 0.4753
- Spsb1 logFC [3]: −0.654
- Tnfaip8 logFC [3]: 0.4
- Traf1 logFC [3]: −1.485
- Trib1 logFC [3]: −0.7668
- Zbtb10 logFC [3]: −0.2586
- Hras logFC [4]: 0.06802
- Map3k1 logFC [4]: −0.7203
- Nfkb1 logFC [4]: −0.616
- Nfkbia logFC [4]: −0.7041
- Pdgfb logFC [4]: −0.8375
- Pdgfra logFC [4]: −0.658
- Pik3cg logFC [4]: −1.096
- Pik3r1 logFC [4]: −0.4284
- Pla2g4a logFC [4]: −0.8381
- Tiam1 logFC [4]: −0.9494
- Arid4a logFC [5]: −0.196
- Atrx logFC [5]: −0.2188
- Bcar1 logFC [5]: 0.346
- Ccdc88a logFC [5]: −0.6374
- Ccnd1 logFC [5]: 0.644
- Cep192 logFC [5]: −0.4173
- Cntrl logFC [5]: −0.3963
- Dmd logFC [5]: −0.3485
- Epb41l2 logFC [5]: −0.6149
- Fgd6 logFC [5]: −0.3419
- Flna logFC [5]: −0.7842
- Itsn1 logFC [5]: −0.2752
- Kmt5a logFC [5]: 0.2873
- Meis1 logFC [5]: −0.3593
- Myh9 logFC [5]: −0.4543
- Myh10 logFC [5]: −0.1801
- Myo1e logFC [5]: −0.292
- Nin logFC [5]: −0.4236
- Ophn1 logFC [5]: −0.7587

From US20220304978A1, “INHIBITING MESANGIAL CELL ACTIVATION” (Chinook Therapeutics, Inc., priority 2019, published 2022)
